Eight compounds from PubChem BioAssay AID1745844 (Carcinogenic Potency Database (CPDB), 2022) can be followed below.

Each structure is given as a SMILES string. Active and inactive are the calls of the source. No rule for the calls is given here.

In the data set the test system is rodent lifetime carcinogenesis bioassay, tumor incidence TD50. Nature of the data set: chronic cancer bioassays in animals – CPDB, compiled studies (AID 1745844).

A word on the TD50: it is the dose at which the toxic effect under study appears in half of the subjects. As to `Nc1ccc(-c2ccc(N)cc2)cc1`, the TD50 runs as follows: (mouse, strain C57BL/6JfC3Hf/Nctr x BALB/cStCrlfC3Hf/Nctr inter se, females, in drinking water, site: Harderian gland, lesion: adenoma, dosed 143 weeks, study length 143 weeks) 41.1 mg/kg/day; (mouse, strain C57BL/6JfC3Hf/Nctr x BALB/cStCrlfC3Hf/Nctr inter se, females, in drinking water, site: liver, lesion: hepatocellular adenoma, dosed 60 weeks, study length 60 weeks) 30.2 mg/kg/day; (mouse, strain C57BL/6JfC3Hf/Nctr x BALB/cStCrlfC3Hf/Nctr inter se, females, in drinking water, site: liver, lesion: hepatocellular adenoma, dosed 80 weeks, study length 80 weeks) 78.7 mg/kg/day; (mouse, strain C57BL/6JfC3Hf/Nctr x BALB/cStCrlfC3Hf/Nctr inter se, females, in drinking water, site: liver, lesion: hepatocellular carcinoma, dosed 60 weeks, study length 60 weeks) 17.9 mg/kg/day; (mouse, strain C57BL/6JfC3Hf/Nctr x BALB/cStCrlfC3Hf/Nctr inter se, females, in drinking water, site: liver, lesion: hepatocellular carcinoma, dosed 80 weeks, study length 80 weeks) 9.6 mg/kg/day; (mouse, strain C57BL/6JfC3Hf/Nctr x BALB/cStCrlfC3Hf/Nctr inter se, females, in drinking water, site: liver, lesion: hepatocellular carcinoma, dosed 143 weeks, study length 143 weeks) 18.9 mg/kg/day. Also, the TD50 was 402 mg/kg/day (mouse, strain C57BL/6JfC3Hf/Nctr x BALB/cStCrlfC3Hf/Nctr inter se, females, in drinking water, site: uterus, lesion: angioma, dosed 143 weeks, study length 143 weeks); 208 mg/kg/day (mouse, strain C57BL/6JfC3Hf/Nctr x BALB/cStCrlfC3Hf/Nctr inter se, males, in drinking water, site: Harderian gland, lesion: adenoma, dosed 143 weeks, study length 143 weeks); 67.7 mg/kg/day (mouse, strain C57BL/6JfC3Hf/Nctr x BALB/cStCrlfC3Hf/Nctr inter se, males, in drinking water, site: liver, lesion: hepatocellular adenoma, dosed 60 weeks, study length 60 weeks); 186 mg/kg/day (mouse, strain C57BL/6JfC3Hf/Nctr x BALB/cStCrlfC3Hf/Nctr inter se, males, in drinking water, site: liver, lesion: hepatocellular adenoma, dosed 80 weeks, study length 80 weeks); 74.3 mg/kg/day (mouse, strain C57BL/6JfC3Hf/Nctr x BALB/cStCrlfC3Hf/Nctr inter se, males, in drinking water, site: liver, lesion: hepatocellular carcinoma, dosed 60 weeks, study length 60 weeks); 39 mg/kg/day (mouse, strain C57BL/6JfC3Hf/Nctr x BALB/cStCrlfC3Hf/Nctr inter se, males, in drinking water, site: liver, lesion: hepatocellular carcinoma, dosed 80 weeks, study length 80 weeks). The TD50 (mouse, strain C57BL/6JfC3Hf/Nctr x BALB/cStCrlfC3Hf/Nctr inter se, males, in drinking water, site: liver, lesion: hepatocellular carcinoma, dosed 143 weeks, study length 143 weeks) is 60.5 mg/kg/day; the TD50 (mouse, strain C57BL/6JfC3Hf/Nctr x BALB/cStCrlfC3Hf/Nctr, females, in drinking water, site: Harderian gland, lesion: adenoma, dosed 143 weeks, study length 143 weeks) was 51.7 mg/kg/day; the TD50 (mouse, strain C57BL/6JfC3Hf/Nctr x BALB/cStCrlfC3Hf/Nctr, females, in drinking water, site: liver, lesion: hepatocellular adenoma, dosed 60 weeks, study length 60 weeks) is 24.7 mg/kg/day; the TD50 (mouse, strain C57BL/6JfC3Hf/Nctr x BALB/cStCrlfC3Hf/Nctr, females, in drinking water, site: liver, lesion: hepatocellular adenoma, dosed 79 weeks, study length 80 weeks) is 41.9 mg/kg/day; the TD50 (mouse, strain C57BL/6JfC3Hf/Nctr x BALB/cStCrlfC3Hf/Nctr, females, in drinking water, site: liver, lesion: hepatocellular carcinoma, dosed 60 weeks, study length 60 weeks) is 17.1 mg/kg/day; the TD50 (mouse, strain C57BL/6JfC3Hf/Nctr x BALB/cStCrlfC3Hf/Nctr, females, in drinking water, site: liver, lesion: hepatocellular carcinoma, dosed 79 weeks, study length 80 weeks) was 8.99 mg/kg/day. Besides, the TD50 was 10.9 mg/kg/day (mouse, strain C57BL/6JfC3Hf/Nctr x BALB/cStCrlfC3Hf/Nctr, females, in drinking water, site: liver, lesion: hepatocellular carcinoma, dosed 143 weeks, study length 143 weeks); 335 mg/kg/day (mouse, strain C57BL/6JfC3Hf/Nctr x BALB/cStCrlfC3Hf/Nctr, females, in drinking water, site: uterus, lesion: angioma, dosed 143 weeks, study length 143 weeks); 129 mg/kg/day (mouse, strain C57BL/6JfC3Hf/Nctr x BALB/cStCrlfC3Hf/Nctr, males, in drinking water, site: Harderian gland, lesion: adenoma, dosed 143 weeks, study length 143 weeks); 60.8 mg/kg/day (mouse, strain C57BL/6JfC3Hf/Nctr x BALB/cStCrlfC3Hf/Nctr, males, in drinking water, site: liver, lesion: hepatocellular adenoma, dosed 60 weeks, study length 60 weeks); 94.8 mg/kg/day (mouse, strain C57BL/6JfC3Hf/Nctr x BALB/cStCrlfC3Hf/Nctr, males, in drinking water, site: liver, lesion: hepatocellular adenoma, dosed 80 weeks, study length 80 weeks); 97.5 mg/kg/day (mouse, strain C57BL/6JfC3Hf/Nctr x BALB/cStCrlfC3Hf/Nctr, males, in drinking water, site: liver, lesion: hepatocellular carcinoma, dosed 60 weeks, study length 60 weeks). Also, the TD50 (mouse, strain C57BL/6JfC3Hf/Nctr x BALB/cStCrlfC3Hf/Nctr, males, in drinking water, site: liver, lesion: hepatocellular carcinoma, dosed 80 weeks, study length 80 weeks) is 33.2 mg/kg/day and the TD50 (mouse, strain C57BL/6JfC3Hf/Nctr x BALB/cStCrlfC3Hf/Nctr, males, in drinking water, site: liver, lesion: hepatocellular carcinoma, dosed 143 weeks, study length 143 weeks) is 31.2 mg/kg/day.
With `NC(Cc1c[nH]c2ccccc12)C(=O)O` (configuration not stated), the carcinogen call is, setting by setting: (rat, strain Fischer, males, in feed, site: liver, lesion: one or several types, types not named, dosed 98 weeks, study length 98 weeks) “negative (inactive)”; (rat, strain Fischer, males, in feed, site: urinary bladder, lesion: one or several types, types not named, dosed 98 weeks, study length 98 weeks) “negative (inactive)”.
With `CC1CN(N=O)CC(C)N1C` (configuration not stated), the TD50 was 1.32 mg/kg/day (hamster, strain Syrian Golden, males, by gavage, site: forestomach, lesion: papilloma, dosed 46 weeks, study length 69 weeks); 6.18 mg/kg/day (hamster, strain Syrian Golden, males, by gavage, site: liver, lesion: angiosarcoma, dosed 46 weeks, study length 69 weeks); 1.73 mg/kg/day (hamster, strain Syrian Golden, males, by gavage, site: lung, lesion: adenoma, dosed 46 weeks, study length 69 weeks); 3.2 mg/kg/day (hamster, strain Syrian Golden, males, by gavage, site: lung, lesion: carcinoma, dosed 46 weeks, study length 69 weeks); 0.151 mg/kg/day (rat, strain Fischer 344, females, in drinking water, site: nasal cavity, lesion: olfactory carcinoma, dosed 30 weeks, study length 85 weeks).
With `[O]=[Mo](=[O])=[O]`, the TD50 (mouse, strain B6C3F1, females, inhaled, site: liver, lesion: hepatocellular adenoma + hepatoblastoma + hepatocellular carcinoma, dosed 105 weeks, study length 105 weeks) came out at 4450 mg/kg/day; the TD50 (mouse, strain B6C3F1, females, inhaled, site: lung, lesion: alveolar/bronchiolar adenoma + alveolar/bronchiolar carcinoma, dosed 105 weeks, study length 105 weeks) came to 68.3 mg/kg/day; the TD50 (mouse, strain B6C3F1, females, inhaled, site: lung, lesion: alveolar/bronchiolar adenoma, dosed 105 weeks, study length 105 weeks) is 97.8 mg/kg/day; the TD50 (mouse, strain B6C3F1, females, inhaled, site: subcutaneous tissue, lesion: sarcoma, dosed 105 weeks, study length 105 weeks) is 162 mg/kg/day; the TD50 (mouse, strain B6C3F1, males, inhaled, site: liver, lesion: hepatocellular adenoma + hepatoblastoma + hepatocellular carcinoma, dosed 105 weeks, study length 105 weeks) was 11.7 mg/kg/day; the TD50 (mouse, strain B6C3F1, males, inhaled, site: liver, lesion: hepatocellular carcinoma, dosed 105 weeks, study length 105 weeks) amounted to 14.8 mg/kg/day. Besides, the TD50 (mouse, strain B6C3F1, males, inhaled, site: lung, lesion: alveolar/bronchiolar adenoma + alveolar/bronchiolar carcinoma, dosed 105 weeks, study length 105 weeks) was determined as 3.21 mg/kg/day; the TD50 (mouse, strain B6C3F1, males, inhaled, site: lung, lesion: alveolar/bronchiolar carcinoma, dosed 105 weeks, study length 105 weeks) was 4.15 mg/kg/day; the TD50 (rat, strain Fischer 344, females, inhaled, site: any site (literature study), lesion: several types, types named in the paper, dosed 105 weeks, study length 105 weeks) amounted to 14 mg/kg/day; the TD50 (rat, strain Fischer 344, females, inhaled, site: clitoral gland, lesion: adenoma + carcinoma, dosed 105 weeks, study length 105 weeks) came out at 5.04 mg/kg/day; the TD50 (rat, strain Fischer 344, females, inhaled, site: mammary gland, lesion: adenoma + fibroadenoma, dosed 105 weeks, study length 105 weeks) was 0.77 mg/kg/day (inactive); the TD50 (rat, strain Fischer 344, males, inhaled, site: liver, lesion: hepatocellular adenoma + hepatoblastoma + hepatocellular carcinoma, dosed 105 weeks, study length 105 weeks) was 128 mg/kg/day. The TD50 by setting is: (rat, strain Fischer 344, males, inhaled, site: lung, lesion: alveolar/bronchiolar adenoma + alveolar/bronchiolar carcinoma, dosed 105 weeks, study length 105 weeks) 21.8 mg/kg/day; (rat, strain Fischer 344, males, inhaled, site: lung, lesion: alveolar/bronchiolar adenoma, dosed 105 weeks, study length 105 weeks) 31.6 mg/kg/day.
As for `O=C(O)O`, the TD50 (mouse, strain B6C3F1, males, in drinking water, site: liver, lesion: hepatocellular adenoma, dosed 52 weeks, study length 52 weeks) was 1330 mg/kg/day (inactive); the TD50 (rat, strain F344/DuCrj, males, in feed, site: urinary bladder, lesion: carcinoma, dosed 104 weeks, study length 104 weeks) was 5350 mg/kg/day (inactive); the TD50 (rat, strain Wistar-random, females, in feed, site: urinary bladder, lesion: several types, types named in the paper, dosed 130 weeks, study length 130 weeks) is 12800 mg/kg/day; the TD50 (rat, strain Wistar-random, females, in feed, site: urinary bladder, lesion: transitional-cell carcinoma, dosed 130 weeks, study length 130 weeks) is 37100 mg/kg/day; the TD50 (rat, strain Wistar-random, females, in feed, site: urinary bladder, lesion: transitional-cell papilloma, dosed 78 weeks, study length 78 weeks) worked out at 8280 mg/kg/day; the TD50 (rat, strain Wistar-random, females, in feed, site: urinary bladder, lesion: transitional-cell papilloma, dosed 130 weeks, study length 130 weeks) is 20700 mg/kg/day. In addition, the TD50 (rat, strain Wistar-random, males, in feed, site: urinary bladder, lesion: several types, types named in the paper, dosed 78 weeks, study length 78 weeks) turned out to be 6400 mg/kg/day; the TD50 (rat, strain Wistar-random, males, in feed, site: urinary bladder, lesion: several types, types named in the paper, dosed 121 weeks, study length 121 weeks) is 13200 mg/kg/day; the TD50 (rat, strain Wistar-random, males, in feed, site: urinary bladder, lesion: transitional-cell carcinoma, dosed 78 weeks, study length 78 weeks) amounted to 12900 mg/kg/day; the TD50 (rat, strain Wistar-random, males, in feed, site: urinary bladder, lesion: transitional-cell carcinoma, dosed 121 weeks, study length 121 weeks) was 54400 mg/kg/day; the TD50 (rat, strain Wistar-random, males, in feed, site: urinary bladder, lesion: transitional-cell papilloma, dosed 78 weeks, study length 78 weeks) was determined as 13100 mg/kg/day; the TD50 (rat, strain Wistar-random, males, in feed, site: urinary bladder, lesion: transitional-cell papilloma, dosed 121 weeks, study length 121 weeks) is 17800 mg/kg/day.
`CN(C)CCN(Cc1cccs1)c1ccccc1`: the carcinogen call was “negative (inactive)” (rat, strain Fischer 344, females, in drinking water, site: liver, lesion: several types, types named in the paper, dosed 82 weeks, study length 130 weeks); “negative (inactive)” (rat, strain Fischer 344, males, in drinking water, site: liver, lesion: several types, types named in the paper, dosed 82 weeks, study length 130 weeks); “negative (inactive)” (rat, strain Fischer 344, males, in drinking water, site: thyroid follicle, lesion: several types, types named in the paper, dosed 82 weeks, study length 130 weeks). The TD50 (rat, strain Fischer 344, females, in drinking water, site: thyroid follicle, lesion: several types, types named in the paper, dosed 82 weeks, study length 130 weeks) was 487 mg/kg/day (inactive).
Take `COCCl`: the TD50 runs as follows: (hamster, strain Syrian Golden, males, inhaled, site: lung, lesion: adenocarcinoma, dosed 113 weeks, study length 124 weeks) 32.9 mg/kg/day; (hamster, strain Syrian Golden, males, inhaled, site: several sites, sites named in the paper, lesion: several types, types named in the paper, dosed 113 weeks, study length 124 weeks) 16.4 mg/kg/day; (rat, strain Sprague-Dawley, males, inhaled, site: several sites, sites named in the paper, lesion: several types, types named in the paper, dosed 113 weeks, study length 122 weeks) 5.5 mg/kg/day.
In turn, `C1CCNCC1` gave a TD50 (rat, strain MRC, females, in drinking water, site: any site (literature study), lesion: several types, types named in the paper, dosed 75 weeks, study length 104 weeks) of 63.3 mg/kg/day.
